Measurements taken from US10125098B2, “Therapeutic compounds and methods of use thereof” (GENENTECH, INC., priority 2014, dated 2018).
Structures can show the parent of a compound that is named as a salt.

The compounds below were run against T1, human NaV1.7 (Homo sapiens, UniProt Q15858) (assay: Patch voltage clamp electrophysiology assay (EP), NaV1.7). Details: HEK-293 cells stably expressing NaV1.7 with β1 subunit; whole-cell patch clamp, membrane potential −60 mV (inactivated state).
T1 construct: permanently transfected with an expression vector containing the full-length cDNA coding for the desired human sodium channel α-subunit; expressed in transfected cells; host or cells: HEK-293
Format: cell-based
Description: The following patch voltage clamp electrophysiology studies were performed on representative compounds of the invention using human embryonic kidney cells (HEK), permanently transfected with an expression vector containing the full-length cDNA coding for the desired human sodium channel α-subunit, grown in culture media containing 10% FBS, 1% PSG, and 0.5 mg/mL G418 at 37° C. with 5% CO2. […] NaV1.7 and NaV1.5 cDNAs (NM_002977 and AC137587; SCN5A, respectively) were stably expressed in HEK-293 cells. The β1 subunit was coexpressed in both the NaV1.7 and NaV1.5 cell lines.
Sodium currents were measured using the patch clamp technique in the whole-cell configuration using either a PatchXpress automated voltage clamp or manually using an Axopatch 200B (Axon Instruments) or Model 2400 (A-M systems) amplifier. The manual voltage clamp protocol was as follows: Borosilicate glass micropipettes were fire-polished to a tip diameter yielding a resistance of 2-4 Mohms in the working solutions. The pipette was filled with a solution comprised of: 5 mM NaCl, 10 mM CsCl, 120 mM CsF, 0.1 mM CaCl2, 2 mM MgCl2, 10 mM HEPES, 10 mM EGTA; and adjusted to pH 7.2 with CsOH. The external solution had the following composition: 140 mM NaCl, 5 mM KCl, 2 mM CaCl2, 1 mM MgCl2, 10 mM HEPES; and adjusted to pH 7.4 with NaOH. In some studies, the external sodium was reduced by equimolar replacement with choline. Osmolarity in the CsF internal and NaCl external solutions was adjusted to 300 mOsm/kg and 310 mOsm/kg with glucose, respectively. All recordings were performed at ambient temperature in a bath chamber with a volume of 150 μL. Control sodium currents were measured in 0.5% DMSO. Controls and representative compounds of the invention were applied to the recording chamber through a 4-pinch or 8-pinch valve bath perfusion system manufactured by ALA Scientific Instruments.
Series resistance compensation was applied (60-80%). […] All statistics in this study are given as mean±SD.
The membrane potential was maintained at a voltage where inactivation of the channel is complete (which was −60 mV for both NaV1.7 and NaV1.5). The voltage is then stepped back to a very negative (Vhold=[…]) voltage for 20 ms and then a test pulse is applied to quantify the compound block. […] The percent decrease in sodium current following wash-on of compound was taken as the percent block of sodium channels.

T1 sequence (Q15858 1-1977 isoform Q15858-3): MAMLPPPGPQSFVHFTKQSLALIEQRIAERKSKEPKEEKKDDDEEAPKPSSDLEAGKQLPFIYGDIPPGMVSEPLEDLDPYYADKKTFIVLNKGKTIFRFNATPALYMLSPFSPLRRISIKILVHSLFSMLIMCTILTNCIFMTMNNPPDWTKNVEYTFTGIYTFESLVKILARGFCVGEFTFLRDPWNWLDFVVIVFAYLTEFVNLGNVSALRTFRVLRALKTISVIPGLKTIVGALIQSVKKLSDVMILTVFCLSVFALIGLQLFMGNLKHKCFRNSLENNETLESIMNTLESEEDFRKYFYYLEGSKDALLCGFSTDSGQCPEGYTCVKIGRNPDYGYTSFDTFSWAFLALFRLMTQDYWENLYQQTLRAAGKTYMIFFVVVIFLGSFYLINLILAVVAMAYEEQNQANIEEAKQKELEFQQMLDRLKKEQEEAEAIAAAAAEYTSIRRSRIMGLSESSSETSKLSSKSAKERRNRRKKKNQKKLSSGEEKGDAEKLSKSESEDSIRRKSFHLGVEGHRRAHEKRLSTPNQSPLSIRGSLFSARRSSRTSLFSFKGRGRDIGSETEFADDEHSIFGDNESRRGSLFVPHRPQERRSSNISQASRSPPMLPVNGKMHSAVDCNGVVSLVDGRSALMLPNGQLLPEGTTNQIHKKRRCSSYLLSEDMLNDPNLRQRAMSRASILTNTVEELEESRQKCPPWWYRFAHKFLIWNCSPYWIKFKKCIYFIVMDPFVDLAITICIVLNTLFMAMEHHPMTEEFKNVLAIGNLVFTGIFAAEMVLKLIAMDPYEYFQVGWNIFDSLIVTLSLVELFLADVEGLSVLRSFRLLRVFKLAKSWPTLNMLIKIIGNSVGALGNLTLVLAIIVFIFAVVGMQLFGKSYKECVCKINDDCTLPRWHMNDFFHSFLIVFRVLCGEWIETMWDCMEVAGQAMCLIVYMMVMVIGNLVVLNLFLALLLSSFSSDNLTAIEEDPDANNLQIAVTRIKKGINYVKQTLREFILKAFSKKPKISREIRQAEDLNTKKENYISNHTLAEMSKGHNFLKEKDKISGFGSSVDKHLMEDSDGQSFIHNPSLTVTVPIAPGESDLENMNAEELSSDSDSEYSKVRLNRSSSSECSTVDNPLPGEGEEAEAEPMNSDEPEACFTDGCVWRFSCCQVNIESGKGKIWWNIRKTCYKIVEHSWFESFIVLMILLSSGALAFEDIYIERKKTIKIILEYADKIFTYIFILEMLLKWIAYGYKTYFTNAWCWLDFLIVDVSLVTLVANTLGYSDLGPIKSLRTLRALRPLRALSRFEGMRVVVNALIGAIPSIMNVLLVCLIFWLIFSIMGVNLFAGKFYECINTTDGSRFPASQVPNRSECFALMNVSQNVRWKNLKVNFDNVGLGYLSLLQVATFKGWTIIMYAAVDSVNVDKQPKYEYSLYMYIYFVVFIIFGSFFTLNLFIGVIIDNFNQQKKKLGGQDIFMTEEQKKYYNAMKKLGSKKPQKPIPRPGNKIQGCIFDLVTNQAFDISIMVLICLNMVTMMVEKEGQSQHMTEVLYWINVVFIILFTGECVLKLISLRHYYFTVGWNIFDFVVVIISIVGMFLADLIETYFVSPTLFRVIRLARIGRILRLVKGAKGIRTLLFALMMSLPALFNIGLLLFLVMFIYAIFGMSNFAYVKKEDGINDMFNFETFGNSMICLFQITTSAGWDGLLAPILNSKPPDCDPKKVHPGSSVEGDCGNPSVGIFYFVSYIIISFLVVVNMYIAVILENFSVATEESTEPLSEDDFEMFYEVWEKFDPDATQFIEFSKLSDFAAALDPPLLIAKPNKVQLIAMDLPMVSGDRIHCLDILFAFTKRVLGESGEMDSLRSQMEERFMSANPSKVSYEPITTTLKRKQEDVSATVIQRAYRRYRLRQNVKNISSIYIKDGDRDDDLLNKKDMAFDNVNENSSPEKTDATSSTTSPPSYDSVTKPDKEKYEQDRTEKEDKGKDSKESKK
T1 sequence (Q07699 19-218 partner): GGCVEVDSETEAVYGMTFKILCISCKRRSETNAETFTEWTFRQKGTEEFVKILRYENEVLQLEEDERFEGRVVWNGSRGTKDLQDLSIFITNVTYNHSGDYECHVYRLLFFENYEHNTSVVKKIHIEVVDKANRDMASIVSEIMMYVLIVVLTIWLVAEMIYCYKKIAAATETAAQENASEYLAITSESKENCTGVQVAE

IC50 | Compound
870 nM | O=C(O)[C@@H]1C[C@H](O)CN1C(=O)c1cc(C2CC2)c(OCC23CC4CC(CC(C4)C2)C3)cc1F [Example 46, (2S,4S)-1-[4-(1-adamantylmethoxy)-5-cyclopropyl-2-fluoro-benzoyl]-4-hydroxy-pyrrolidine-2-carboxylic acid]

These compounds were tested against T2, hNav1.7 (Homo sapiens, UniProt Q15858) (assay: Tritiated compound binding (LBA) to membranes from cells expressing hNav1.7 and the β1 subunit, competitive binding). Details: competitive binding vs 100 pM [3H]compound, 18 h, room temperature, membranes with hNav1.7 and β1 subunit.
T2 construct: expressed in transfected cells
Description: Tritiated Compound Binding to Membranes
Isolated from Cells that Heterologously Express hNav1.7 and the β1 Subunit
Preparation of membranes containing recombinantly expressed sodium channels: Frozen recombinant cell pellets were thawed on ice and diluted to 4 times the cell pellet weight with ice cold 50 mM Tris HCl, pH 7.4 buffer. The cell suspensions were homogenized on ice using a motorized glass dounce homogeniser. […] The supernatants were collected and centrifuged at 10000×g at 4° C. for 50 min. The pellets were then re-suspended in 100 mM NaCl, 20 mM Tris HCl, pH 7.4 buffer containing 1% v/v protease inhibitors (Calbiochem) and re-homogenized on ice. The homogenized membranes were then processed through a syringe equipped with a 26 gauge needle. Protein concentrations were determined by Bradford Assay and the membranes were stored at −80° C.
Saturation experiments. A representative compound of formula (I) having a methyl group was tritiated. Three tritiums were incorporated in place of methyl hydrogens to generate [^3H]compound. Binding of this radioligand was performed in 5 mL borosilicate glass test tubes at room temperature. Binding was initiated by adding membranes to increasing concentrations of [^3H]compound in 100 mM NaCl, 20 mM Tris HCl, pH 7.4 buffer containing 0.01% w/v bovine serum albumin (BSA) for 18 h. Non-specific binding was determined in the presence of 1 μM unlabeled compound. After 18 h, the reactants were filtered through GF/C glass fiber filters presoaked in 0.5% w/v polyethylene imine. […] [^3H]compound bound to filters was quantified by liquid scintillation counting.
Binding reactions were performed in 96-well polypropylene plates at room temperature for 18 h. In 360 μL, membranes were incubated with 100 pM [^3H]compound and increasing concentrations of Test Compound. Non-specific binding was defined in the presence of 1 μM unlabeled compound. Reactions were transferred and filtered through 96-well glass fiber/C filter plates presoaked with 0.5% polyethylene imine. […] Bound radioactivity was determined by liquid scintillation counting.
Data Analysis: For saturation experiments, non-specific binding was subtracted from total binding to provide specific binding and these values were recalculated in terms of pmol ligand bound per mg protein. Saturation curves were constructed and dissociation constants were calculated using the single site ligand binding model: Beq=(Bmax*X)/(X+Kd), where Beq is the amount of ligand bound at equilibrium, Bmax is the maximum receptor density, Kd is the dissociation constant for the ligand, and X is the free ligand concentration. For competition studies percent inhibition was determined and IC50 values were calculated using a 4 parameter logistic model (% inhibition=(A+((B−A)/(1+((x/C)^D)))) using XLfit, where A and B are the maximal and minimum inhibition respectively, C is the IC50 concentration and D is the (Hill) slope.

T2 sequence (Q15858 1-1977 isoform Q15858-3): as the sequence (Q15858 1-1977 isoform Q15858-3) above
T2 sequence (Q07699 19-218 partner): as the sequence (Q07699 19-218 partner) above

IC50 | Compound
5230 nM | O=C(O)[C@@H]1CCCN1C(=O)c1cc(Cl)c(Oc2ccc(OC(F)(F)F)c(Cl)c2)cc1F [Example 37, (S)-1-(5-chloro-4-(3-chloro-4-(trifluoromethoxy)phenoxy)-2-fluorobenzoyl)-pyrrolidine-2-carboxylic acid]
345 nM | O=C(O)[C@@H]1CCCN1C(=O)c1cc(Cl)c(COc2ccc(OC(F)(F)F)c(Cl)c2)cc1F [Example 30, (S)-1-(5-chloro-4-((3-chloro-4-(trifluoromethoxy)phenoxy)methyl)-2-fluorobenzoyl)pyrrolidine-2-carboxylic acid]
2700 nM | O=C(O)[C@@H]1CCCN1C(=O)c1cc(Cl)c(Oc2cnc(OCC(F)(F)F)c(Cl)c2)cc1F [Example 217, (S)-1-(5-Chloro-4-((5-chloro-6-(2,2,2-trifluoroethoxy)pyridin-3-yl)oxy)-2-fluorobenzoyl)pyrrolidine-2-carboxylic acid trifluoroacetate]
6960 nM | C[C@@H](Oc1cnc(C2CC2)c(Cl)c1)c1cc(F)c(C(=O)N2CCC[C@H]2C(=O)O)cc1C1CC1 [Example 15, (S)-1-(4-((R)-1-((5-chloro-6-cyclopropylpyridin-3-yl)oxy)ethyl)-5-cyclopropyl-2-fluorobenzoyl)pyrrolidine-2-carboxylic acid]
2730 nM | O=C(O)[C@@H]1CCCN1C(=O)c1cc(Cl)c(Oc2cnc(OCC(F)(F)F)c(Cl)c2)cc1F [Example 24, (S)-1-(5-chloro-4-((5-chloro-6-(2,2,2-trifluoroethoxy)pyridin-3-yl)oxy)-2-fluorobenzoyl)pyrrolidine-2-carboxylic acid trifluoroacetic acid salt]
> 10000 nM | O=C(O)[C@@H]1CCCN1C(=O)c1cc(F)c(Oc2ccc(Cl)cc2-c2ccnn2C2CNC2)cc1F [Example 34, (S)-1-(4-(2-(1-(azetidin-3-yl)-1H-pyrazol-5-yl)-4-chlorophenoxy)-2,5-difluorobenzoyl)pyrrolidine-2-carboxylic acid trifluoroacetic acid salt]
> 10000 nM | O=C(O)[C@@H]1CCCN1C(=O)c1cc(F)c(Oc2ccc(Cl)cc2-c2ccccc2)cc1F [Example 22, (S)-1-(4-((5-chloro-[1,1′-biphenyl]-2-yl)oxy)-2,5-difluorobenzoyl)pyrrolidine-2-carboxylic acid]

Continued, compound first:

Compound | IC50
O=C(O)[C@@H]1C[C@H](O)CN1C(=O)c1cc(C2CC2)c(OCC23CC4CC(CC(C4)C2)C3)cc1F [Example 46, (2S,4S)-1-[4-(1-adamantylmethoxy)-5-cyclopropyl-2-fluoro-benzoyl]-4-hydroxy-pyrrolidine-2-carboxylic acid] | 150 nM
Nc1noc2ccc(-c3cc(Cl)ccc3Oc3cc(F)c(C(=O)N4CCC[C@H]4C(=O)O)cc3F)cc12 [Example 25, (S)-1-(4-(2-(3-aminobenzo[d]isoxazol-5-yl)-4-chlorophenoxy)-2,5-difluorobenzoyl)pyrrolidine-2-carboxylic acid trifluoroacetic acid] | > 10000 nM
CC1(COc2cc(F)c(C(=O)N3CCC[C@H]3C(=O)O)cc2C2CC2)CCC(F)(F)CC1 [Example 12, (S)-1-(5-cyclopropyl-4-((4,4-difluoro-1-methylcyclohexyl)methoxy)-2-fluorobenzoyl)pyrrolidine-2-carboxylic acid] | 984 nM
CN(C(=O)c1cc(C2CC2)c(OCC23CC4CC(CC(C4)C2)C3)cc1F)C1(C(=O)O)CC1 [Example 7, 1-(4-(adamantan-1-ylmethoxy)-5-cyclopropyl-2-fluoro-N-methylbenzamido)-cyclopropanecarboxylic acid] | 3050 nM
O=C(O)[C@@H]1CCCN1C(=O)c1ccc(OCC23CC4CC(CC(C4)C2)C3)c(Cl)c1 [Example 23, (S)-1-((4-(adamantan-1-ylmethoxy))-3-chlorobenzoyl)pyrrolidine-2-carboxylic acid] | 3960 nM
Cc1cc(C(=O)N2CCC[C@H]2C(=O)O)c(F)cc1OCC12CC3CC(CC(C3)C1)C2 [Example 40, (S)-1-(4-(adamantan-1-ylmethoxy)-2-fluoro-5-methylbenzoyl)pyrrolidine-2-carboxylic acid] | 452 nM
CC(c1cc(Cl)cc(Cl)c1)N1CCC(COc2cc(F)c(C(=O)N3CCC[C@H]3C(=O)O)cc2C2CC2)CC1 (stereo partly drawn) [Example 39, (2S)-1-(5-cyclopropyl-4-((1-(1-(3,5-dichlorophenyl)ethyl)piperidin-4-yl)methoxy)-2-fluorobenzoyl)pyrrolidine-2-carboxylic acid trifluoroacetic acid salt] | 43.6 nM
CC12CC3(C)CC(C)(C1)CC(COc1cc(F)c(C(=O)N4CCC[C@H]4C(=O)O)cc1C1CC1)(C2)C3 [Example 3, (S)-1-(5-cyclopropyl-2-fluoro-4-((3,5,7-trimethyladamantan-1-yl)methoxy)benzoyl)pyrrolidine-2-carboxylic acid] | 8.9 nM
CC(C)(C)OC(=O)N1CC(n2nccc2-c2cc(Cl)ccc2Oc2cc(F)c(C(=O)N3CCC[C@H]3C(=O)O)cc2F)C1 [Example 33, (S)-1-(4-(2-(1-(1-(tert-butoxycarbonyl)azetidin-3-yl)-1H-pyrazol-5-yl)-4-chlorophenoxy)-2,5-difluorobenzoyl)pyrrolidine-2-carboxylic acid] | > 10000 nM
C[C@@H](Oc1ccc(Cl)c(Cl)c1)c1cc(F)c(C(=O)NC2(C(=O)O)CC2)cc1C1CC1 [Example 9, (R)-1-(5-cyclopropyl-4-(1-(3,4-dichlorophenoxy)ethyl)-2-fluorobenzamido)cyclopropanecarboxylic acid] | > 10000 nM
O=C(O)[C@@H]1CCCN1C(=O)c1cc(C2CC2)c(OCC2CCCCC2)cc1F [Example 13, (S)-1-(4-(cyclohexylmethoxy)-5-cyclopropyl-2-fluorobenzoyl)pyrrolidine-2-carboxylic acid] | 173 nM
O=C(O)[C@@H]1CCCN1C(=O)c1cc(C2CC2)c(CN2[C@@H]3CC[C@H]2C[C@@H](Oc2cc(Cl)cc(OC(F)(F)F)c2)C3)cc1F [Example 19, (S)-1-(4-(((1R,3S,5S)-3-(3-chloro-5-(trifluoromethoxy)phenoxy)-8-azabicyclo[3.2.1]octan-8-yl)methyl)-5-cyclopropyl-2-fluorobenzoyl)pyrrolidine-2-carboxylic acid trifluoroacetic acid salt] | 443 nM
O=C(O)[C@@H]1CCCN1C(=O)c1cc(C2CC2)c(O[C@H]2C3CC4CC2C[C@](F)(C4)C3)cc1F [Example 18, (S)-1-(5-cyclopropyl-2-fluoro-4-(((1R,2s,3S,5R,7R)-5-fluoroadamantan-2-yl)oxy)benzoyl)pyrrolidine-2-carboxylic acid] | 4500 nM
